We go through 2 molecules from ChEMBL document CHEMBL4725437, “P450s under Restriction (PURE) Screen Using HepaRG and Primary Human Hepatocytes for Discovery of Novel HBV Antivirals” (ACS Med Chem Lett, 2020).

What is called inhibition is the change of the read-out against control, counted positive when it falls.

In one series the target is T1, Cytochrome P450 1A2 (Homo sapiens, UniProt P05177).
T1 sequence (P05177 whole entry): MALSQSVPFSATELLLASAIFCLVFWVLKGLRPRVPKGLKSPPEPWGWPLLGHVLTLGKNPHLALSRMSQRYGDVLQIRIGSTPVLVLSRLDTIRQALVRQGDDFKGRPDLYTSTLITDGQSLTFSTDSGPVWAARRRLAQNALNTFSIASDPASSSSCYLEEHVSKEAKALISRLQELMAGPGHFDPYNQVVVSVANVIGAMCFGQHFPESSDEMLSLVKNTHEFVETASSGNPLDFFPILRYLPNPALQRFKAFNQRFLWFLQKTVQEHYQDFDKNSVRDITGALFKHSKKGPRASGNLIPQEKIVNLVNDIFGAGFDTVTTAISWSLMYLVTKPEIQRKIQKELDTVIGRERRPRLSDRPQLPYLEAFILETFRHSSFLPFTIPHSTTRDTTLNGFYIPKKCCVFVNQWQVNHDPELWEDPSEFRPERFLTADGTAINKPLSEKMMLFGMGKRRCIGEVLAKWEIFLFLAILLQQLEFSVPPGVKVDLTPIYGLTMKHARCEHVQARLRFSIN
Put plainly: Inhibition of CYP1A2 in HBV-infected human primary hepatocytes cells at 5 to 100 uM using luciferin-1A2 as substrate treated for 1 hr on day 5 post-infection followed by removal of media and supplemented with fresh media and further incubated for 3 days then followed by treatment for 1 hr on day 8 post-infection followed by removal of media and supplemented with fresh media and further incubated for 3 days and measured on day 11 post-infection by P450-Glo chemiluminescent assay. In kind it is ADME, tissue-based, Primary hepatocyte. The settings on record: dose 5-100 µM.

Series [1] deals with T2, CYP2C9 (Homo sapiens, UniProt P11712). Put plainly: Inhibition of CYP2C9 in HBV-infected human HepaRG cells at 50 uM using luciferin-H as substrate treated for 1 hr on day 5 post-infection followed by removal of media and supplemented with fresh media and further incubated for 3 days then followed by treatment for 1 hr on day 8 post-infection followed by removal of media and supplemented with fresh media and further incubated for 3 days and measured on day 11 post-infection by P450-Glo chemiluminescent assay relative to control. The settings on record: probe luciferin-H. The class given is ADME, tissue-based.

Series [2] deals with T3, CYP3A4 (Homo sapiens, UniProt P08684). Put plainly: Inhibition of CYP3A4 in HBV-infected human HepaRG cells at 50 uM using luciferin-IPA as substrate treated for 1 hr on day 5 post-infection followed by removal of media and supplemented with fresh media and further incubated for 3 days in presence of 10 mM ABT by P450-Glo chemiluminescent assay relative to control. The settings on record: probe luciferin-IPA, with ABT 10 mM. In kind it is ADME, tissue-based.

Series [3] deals with T3, CYP3A4. Put plainly: Inhibition of CYP3A4 in HBV-infected human HepaRG cells at 50 uM using luciferin-IPA as substrate treated for 1 hr on day 5 post-infection followed by removal of media and supplemented with fresh media and further incubated for 3 days then followed by treatment for 1 hr on day 8 post-infection followed by removal of media and supplemented with fresh media and further incubated for 3 days in presence of 10 mM ABT and measured on day 11 post-infection by P450-Glo chemiluminescent assay relative to control. The class given is ADME, tissue-based. The settings on record: probe luciferin-IPA, with ABT 10 mM.

For series [4], the target named is T2, CYP2C9. Put plainly: Inhibition of CYP2C9 in HBV-infected human HepaRG cells at 50 uM using luciferin-H as substrate treated for 1 hr on day 5 post-infection followed by removal of media and supplemented with fresh media and further incubated for 3 days by P450-Glo chemiluminescent assay relative to control. In kind it is ADME, tissue-based. The settings on record: probe luciferin-H.

Another series has as its system HepaRG. In words: Cytotoxicity against human HepaRG cells infected with HBV assessed as reduction in cell viability at 50 uM treated for 1 hr on day 5 post-infection followed by removal of media and supplemented with fresh media and further incubated for 3 days then followed by treatment for 1 hr on day 8 post-infection followed by removal of media and supplemented with fresh media and further incubated for 3 days in presence of 10 mM ABT and measured on day 11 post-infection by Celltiter-Glo assay. In kind it is cell-based.

The target in series [5] is T4, Cytochrome P450 2C9 (Homo sapiens, UniProt P11712). Put plainly: Inhibition of CYP2C9 in HBV-infected human primary hepatocytes cells at 0.2 to 20 mM using luciferin-H as substrate treated for 1 hr on day 5 post-infection followed by removal of media and supplemented with fresh media and further incubated for 3 days then followed by treatment for 1 hr on day 8 post-infection followed by removal of media and supplemented with fresh media and further incubated for 3 days and measured on day 11 post-infection by P450-Glo chemiluminescent assay. The class given is ADME, tissue-based, Primary hepatocyte. The settings on record: 20000 µM, dose 0.2-20 mM.

For another series, the system named is Hepatitis B virus. In words: Antiviral activity against Hepatitis B virus infected in human primary hepatocytes assessed as reduction in HbsAg secretion level at 10 mM treated for 1 hr on day 5 post-infection followed by removal of media and supplemented with fresh media and further incubated for 3 days then followed by treatment for 1 hr on day 8 post-infection followed by removal of media and supplemented with fresh media and further incubated for 3 days in presence of 25 uM SKF-525A and measured on day 11 post-infection by chemiluminescence immunostaining assay. The class given is functional, Primary hepatocyte. Also on record: scale not given: the % may be the effect or the level left.

Series [6] concerns the target T2, CYP2C9. Put plainly: Inhibition of CYP2C9 in HBV-infected human HepaRG cells at 10 mM using luciferin-H as substrate treated for 1 hr on day 5 post-infection followed by removal of media and supplemented with fresh media and further incubated for 3 days in presence of 50 uM SKF-525A by P450-Glo chemiluminescent assay relative to control. The settings on record: probe luciferin-H, with SKF-525A 50 uM. In kind it is ADME, tissue-based.

A further series concerns Hepatocyte. Put plainly: Cytotoxicity against human primary hepatocytes infected with HBV assessed as reduction in cell viability at 10 mM treated for 1 hr on day 5 post-infection followed by removal of media and supplemented with fresh media and further incubated for 3 days then followed by treatment for 1 hr on day 8 post-infection followed by removal of media and supplemented with fresh media and further incubated for 3 days in presence of 50 uM SKF-525A and measured on day 11 post-infection by Celltiter-Glo assay relative to control. In kind it is cell-based. Background: Cellular ATP, detected with luciferase, serves as a proxy for viable cell number.

Another series deals with T5, CYP1A2 (Homo sapiens, UniProt P05177).
T5 sequence (P05177 whole entry): T1 sequence (P05177 whole entry)
In words: Inhibition of CYP1A2 in HBV-infected human HepaRG cells at 10 mM using luciferin-1A2 as substrate treated for 1 hr on day 5 post-infection followed by removal of media and supplemented with fresh media and further incubated for 3 days by P450-Glo chemiluminescent assay relative to control. The class given is ADME, tissue-based. The settings on record: probe luciferin-1A2.

The target in series [7] is T4, Cytochrome P450 2C9. Put plainly: Inhibition of CYP2C9 in HBV-infected human HepaRG cells at 0.2 to 20 mM using luciferin-H as substrate treated for 1 hr on day 5 post-infection followed by removal of media and supplemented with fresh media and further incubated for 3 days then followed by treatment for 1 hr on day 8 post-infection followed by removal of media and supplemented with fresh media and further incubated for 3 days and measured on day 11 post-infection by P450-Glo chemiluminescent assay. In kind it is ADME, tissue-based. The settings on record: 20000 µM, dose 0.2-20 mM.

Series [8] has as its target T3, CYP3A4. Put plainly: Inhibition of CYP3A4 in HBV-infected human HepaRG cells at 10 mM using luciferin-IPA as substrate treated for 1 hr on day 5 post-infection followed by removal of media and supplemented with fresh media and further incubated for 3 days then followed by treatment for 1 hr on day 8 post-infection followed by removal of media and supplemented with fresh media and further incubated for 3 days in presence of 50 uM SKF-525A and measured on day 11 post-infection by P450-Glo chemiluminescent assay relative to control. In kind it is ADME, tissue-based. The settings on record: probe luciferin-IPA, with SKF-525A 50 uM.

T2 sequence (P11712 whole entry): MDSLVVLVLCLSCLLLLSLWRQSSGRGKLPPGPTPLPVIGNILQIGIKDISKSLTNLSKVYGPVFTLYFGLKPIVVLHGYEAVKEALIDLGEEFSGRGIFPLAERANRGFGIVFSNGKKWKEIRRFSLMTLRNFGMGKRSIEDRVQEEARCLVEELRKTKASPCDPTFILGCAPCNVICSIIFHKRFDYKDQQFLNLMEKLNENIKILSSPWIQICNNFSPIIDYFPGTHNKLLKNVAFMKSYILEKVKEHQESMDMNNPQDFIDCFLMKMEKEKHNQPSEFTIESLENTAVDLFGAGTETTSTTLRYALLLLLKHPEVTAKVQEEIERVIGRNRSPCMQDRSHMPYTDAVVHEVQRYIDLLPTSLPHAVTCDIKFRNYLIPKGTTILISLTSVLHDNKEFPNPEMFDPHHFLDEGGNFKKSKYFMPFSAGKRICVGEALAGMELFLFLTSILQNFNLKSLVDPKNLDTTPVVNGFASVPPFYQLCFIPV
T3 sequence (P08684 whole entry): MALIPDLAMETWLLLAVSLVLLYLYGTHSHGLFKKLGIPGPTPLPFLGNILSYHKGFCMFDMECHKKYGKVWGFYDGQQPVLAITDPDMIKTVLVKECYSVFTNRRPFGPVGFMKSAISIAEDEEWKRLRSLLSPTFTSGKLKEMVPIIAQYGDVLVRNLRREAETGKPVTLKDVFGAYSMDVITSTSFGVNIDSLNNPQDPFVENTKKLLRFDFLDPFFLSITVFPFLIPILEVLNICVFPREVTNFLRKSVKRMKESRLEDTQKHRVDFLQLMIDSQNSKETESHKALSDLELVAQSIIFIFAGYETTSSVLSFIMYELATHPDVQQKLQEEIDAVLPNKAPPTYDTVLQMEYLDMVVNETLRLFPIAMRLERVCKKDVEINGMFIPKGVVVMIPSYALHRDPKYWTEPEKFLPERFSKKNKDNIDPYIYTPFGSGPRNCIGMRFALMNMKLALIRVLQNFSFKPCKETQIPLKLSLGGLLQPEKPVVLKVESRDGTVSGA
T4 sequence (P11712 whole entry): as the sequence (P11712 whole entry) above

In the case of `CCCC(C(=O)OCCN(CC)CC)(c1ccccc1)c1ccccc1` [PROADIFEN], the “inhibition (INH)” value at Cytochrome P450 1A2 is recorded as “Active”. Moreover, the inhibition at 1 h, 50 µM at CYP2C9 [1] came out at 42.2%; at CYP3A4 [2], 83.3%; at CYP3A4 [3], 90.3%; against CYP2C9 [4], 21.4%. Further, in the series on HepaRG, the Activity result is recorded as “Non-Toxic”.
In the case of `Nn1nnc2ccccc21`, the “inhibition (INH)” value against Cytochrome P450 2C9 [5] and against Cytochrome P450 2C9 [7] was “Active” each time. The figures for the Activity with Hepatitis B virus and in the series with Hepatocyte were 20% and 10%, respectively. Besides, the inhibition at 1 h, 10000 µM was determined as 36.9% on CYP2C9 [6] and 37.1% against CYP1A2. In addition, on CYP3A4 [8], the inhibition at 2 h, 10000 µM was 90.3%.
